Source: ChEMBL document CHEMBL1201862, “PubChem BioAssay data set” (2004)
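Each compound was tested at five concentrations against cells in 96-well plates for 48 hours. GI50 is the concentration that inhibits growth by half.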 Active and inactive are the calls of the source. Cut-off read from the data, not from the text of the source: active = GI50 up to about 1.1 µM and inactive = higher.

How the values were obtained:
Test in all cases: NCI-60 cell line screen, 48 h
SK-OV-3 = system: SK-OV-3
BT-549 = system: BT-549
OVCAR-3 = system: OVCAR-3
SR = system: SR
HL-60 = system: HL-60
HCT-116 = system: HCT-116
RPMI-8226 = system: RPMI-8226
CAKI-1 = system: CAKI-1
SNB-19 = system: SNB-19
SF-539 = system: SF-539
HCC 2998 = system: HCC 2998
MDA-N = system: MDA-N
HOP-92 = system: HOP-92
MOLT-4 = system: MOLT-4
Malme-3M = system: Malme-3M
CCRF-CEM = system: CCRF-CEM
SF-268 = system: SF-268
SNB-75 = system: SNB-75
MDA-MB-231 = system: MDA-MB-231
K562 = system: K562
DU-145 = system: DU-145
NCI/ADR-RES = system: NCI/ADR-RES
HOP-62 = system: HOP-62
SK-MEL-5 = system: SK-MEL-5
UO-31 = system: UO-31
SN12C = system: SN12C
786-0 = system: 786-0
RXF 393 = system: RXF 393
NCI-H226 = system: NCI-H226
SF-295 = system: SF-295
M14 = system: M14
MCF7 = system: MCF7
OVCAR-5 = system: OVCAR-5
EKVX = system: EKVX
U-251 = system: U-251
IGROV-1 = system: IGROV-1
SW-620 = system: SW-620
TK-10 = system: TK-10
OVCAR-8 = system: OVCAR-8
NCI-H460 = system: NCI-H460
COLO 205 = system: COLO 205
NCI-H23 = system: NCI-H23
Hs-578T = system: Hs-578T
UACC-257 = system: UACC-257
KM12 = system: KM12
SK-MEL-2 = system: SK-MEL-2
A549 = system: A549
A498 = system: A498
UACC-62 = system: UACC-62
ACHN = system: ACHN
PC-3 = system: PC-3
T47D = system: T47D
LOX IMVI = system: LOX IMVI
HCT-15 = system: HCT-15
NCI-H522 = system: NCI-H522
OVCAR-4 = system: OVCAR-4
HT-29 = system: HT-29
SK-MEL-28 = system: SK-MEL-28
MDA-MB-435 = system: MDA-MB-435

## NCCc1ccc2c(c1)C(=O)c1c(O)ccc(O)c1C2=O
SK-OV-3
  GI50: 5.86 µM (inactive)
BT-549
  GI50: 6.73 µM (inactive)
OVCAR-3
  GI50: 1.69 µM (inactive)
SR
  GI50: 3.43 µM (inactive)
HL-60
  GI50: 2.17 µM (inactive)
HCT-116
  GI50: 2.69 µM (inactive)
RPMI-8226
  GI50: 4.14 µM (inactive)
CAKI-1
  GI50: 4.84 µM (inactive)
SNB-19
  GI50: 4.72 µM (inactive)
SF-539
  GI50: 3.02 µM (inactive)
HCC 2998
  GI50: > 23.9 µM (inactive)
MDA-N
  GI50: 2.82 µM (inactive)
HOP-92
  GI50: 4.05 µM (inactive)
MOLT-4
  GI50: 2.76 µM (inactive)
Malme-3M
  GI50: 1.87 µM (inactive)
CCRF-CEM
  GI50: 3.36 µM (inactive)
SF-268
  GI50: 4.13 µM (inactive)
SNB-75
  GI50: 4.57 µM (inactive)
MDA-MB-231
  GI50: 4.51 µM (inactive)
K562
  GI50: 3.94 µM (inactive)
DU-145
  GI50: > 19.8 µM (inactive)
NCI/ADR-RES
  GI50: 3.93 µM (inactive)
HOP-62
  GI50: 3.6 µM (inactive)
SK-MEL-5
  GI50: 0.843 µM (active)
UO-31
  GI50: 4.65 µM (inactive)
SN12C
  GI50: 2.51 µM (inactive)
786-0
  GI50: 2.2 µM (inactive)
RXF 393
  GI50: > 21.6 µM (inactive)
NCI-H226
  GI50: 17 µM (inactive)
SF-295
  GI50: 4.62 µM (inactive)
M14
  GI50: 3.08 µM (inactive)
MCF7
  GI50: 3.51 µM (inactive)
OVCAR-5
  GI50: 5.06 µM (inactive)
EKVX
  GI50: 2.45 µM (inactive)
U-251
  GI50: 3.64 µM (inactive)
IGROV-1
  GI50: 3.4 µM (inactive)
SW-620
  GI50: 3.95 µM (inactive)
TK-10
  GI50: > 100 µM (inactive)
OVCAR-8
  GI50: 2.04 µM (inactive)
NCI-H460
  GI50: > 20.7 µM (inactive)
COLO 205
  GI50: 1.68 µM (inactive)
NCI-H23
  GI50: 3.5 µM (inactive)
Hs-578T
  GI50: 5.98 µM (inactive)
UACC-257
  GI50: 15.2 µM (inactive)
KM12
  GI50: 4.72 µM (inactive)
SK-MEL-2
  GI50: 6.55 µM (inactive)
A549
  GI50: 3.56 µM (inactive)
A498
  GI50: > 58.1 µM (inactive)
UACC-62
  GI50: 5.86 µM (inactive)
ACHN
  GI50: 4.46 µM (inactive)
PC-3
  GI50: 3.33 µM (inactive)
T47D
  GI50: 3.37 µM (inactive)
LOX IMVI
  GI50: 4.11 µM (inactive)
HCT-15
  GI50: 4.51 µM

## COC(=O)C1=C(C(=O)OC)C(Cc2ccccc2)(OO)OC1=O (stereo not drawn)
SK-OV-3
  GI50: 29 µM (inactive)
BT-549
  GI50: 6.32 µM (inactive)
OVCAR-3
  GI50: 4.33 µM (inactive)
NCI-H522
  GI50: 2.32 µM (inactive)
SR
  GI50: 3.52 µM (inactive)
HL-60
  GI50: 0.964 µM (active)
HCT-116
  GI50: 3.35 µM (inactive)
CAKI-1
  GI50: 4.82 µM (inactive)
SNB-19
  GI50: 22 µM (inactive)
SF-539
  GI50: 3.15 µM (inactive)
HCC 2998
  GI50: 60.1 µM (inactive)
MDA-N
  GI50: 4.03 µM (inactive)
HOP-92
  GI50: 5.94 µM (inactive)
MOLT-4
  GI50: 3.64 µM (inactive)
Malme-3M
  GI50: 6.22 µM (inactive)
CCRF-CEM
  GI50: 1.04 µM (active)
SNB-75
  GI50: 9.33 µM (inactive)
MDA-MB-231
  GI50: 28.2 µM (inactive)
K562
  GI50: 2.7 µM (inactive)
DU-145
  GI50: 23 µM (inactive)
NCI/ADR-RES
  GI50: 7.82 µM (inactive)
SK-MEL-5
  GI50: 4.26 µM (inactive)
UO-31
  GI50: 5.18 µM (inactive)
SN12C
  GI50: 4.22 µM (inactive)
786-0
  GI50: 2.95 µM (inactive)
RXF 393
  GI50: 4.94 µM (inactive)
NCI-H226
  GI50: 5.46 µM (inactive)
SF-295
  GI50: 29.5 µM (inactive)
M14
  GI50: 3.8 µM (inactive)
MCF7
  GI50: 3.78 µM (inactive)
OVCAR-5
  GI50: 18.8 µM (inactive)
EKVX
  GI50: 11.3 µM (inactive)
U-251
  GI50: 12.8 µM (inactive)
IGROV-1
  GI50: 4.65 µM (inactive)
SW-620
  GI50: 2.83 µM (inactive)
OVCAR-4
  GI50: 16 µM (inactive)
TK-10
  GI50: 3.4 µM (inactive)
OVCAR-8
  GI50: 18.4 µM (inactive)
NCI-H460
  GI50: 36.2 µM (inactive)
COLO 205
  GI50: 7.19 µM (inactive)
NCI-H23
  GI50: 12.7 µM (inactive)
UACC-257
  GI50: 4.38 µM (inactive)
KM12
  GI50: 19.1 µM (inactive)
SK-MEL-2
  GI50: 5.65 µM (inactive)
HT-29
  GI50: 3.17 µM (inactive)
A549
  GI50: 27.4 µM (inactive)
UACC-62
  GI50: 3.52 µM (inactive)
ACHN
  GI50: 2.99 µM (inactive)
PC-3
  GI50: 13.1 µM (inactive)
SK-MEL-28
  GI50: 7.76 µM (inactive)
T47D
  GI50: 9.98 µM (inactive)
LOX IMVI
  GI50: 3.59 µM (inactive)
HCT-15
  GI50: 3.21 µM
MDA-MB-435
  GI50: 3.52 µM (inactive)
